We go through one substance from patent publication US11274214B2, “Composition of water based coating with a low content of volatile organic compounds and high resistance to dirt handle, and, use of water based coating” (OXITENO S.A. INDÚSTRIA E COMÉRCIO, priority 2017, dated 2022).

Data set [1] can be described thus: Estimated Hansen solubility parameters and octanol/water partition coefficient of coalescents. From the text: In order to perform the comparative tests, two commercially available products, Texanol™ and OPTIFILM 300™, were used.
A short description of data set [2]: Physical and chemical properties of isopentyl succinate.

isopentyl succinate: the “Solubility in water (suggested by octanol/water partition coefficients)” value in data set [1] is on record as “low solubility in water”. Also, in data set [2], the Density is 0.966 g/mL, the Freezing point is −25 °C and the Relative evaporation rate turned out to be 0.029. Also, the “Volatile content according to method 24” value in data set [2] (method 24) was found to be 50%.
